Test results from patent US20250129070A1, “BIFUNCTIONAL ANDROGEN RECEPTOR COMPOUNDS” (priority 2023, published 2025).

The compounds below were run on AR / CBP ternary complex (assay: Ternary complex formation assay (sandwich ELISA, AR capture / CBP detection) in VCaP cell lysates). Conditions: 1.5 hours treatment, sandwich ELISA (AR capture, CBP or p300 detection).
Assay type: cell-based
Summary of the method: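 VCaP cells (50K/well, 5% charcoal-stripped FBS, ≥3 days) treated with bifunctional compound for 1.5 h, then lysed 30 min at 4 °C. AR captured on anti-AR (AR 441) plates; bound CBP or p300 detected by rabbit mAb plus HRP secondary. QuantaRed chemifluorescence read at ex 570/em 585, immediately and at 5 and 15 min.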

| Structure (SMILES) | EC50 [nM] |
| --- | --- |
| CC(=O)N1CCc2c(c(N3CCCc4cc(-c5cnn(C)c5)c(C(F)F)cc43)nn2C2CCN(CC3C(C)CN(c4ncc(C(=O)NC5C(C)(C)C(Oc6ccc(C#N)c(C(F)(F)F)c6)C5(C)C)cn4)CC3C)CC2)C1 (centres unmarked) [Compound 463, 2-[4-[[4-[5-acetyl-3-[7-(difluoromethyl)-6-(1-methylpyrazol-4-yl)-3,4-dihydro-2H-quinolin-1-yl]-6,7-dihydro-4H-pyrazolo[4,3-c]pyridin-1-yl]-1-piperidyl]methyl]-3,5-dimethyl-1-piperidyl]-N-[3-[4-cyano-3-(trifluoromethyl)phenoxy]-2,2,4,4-tetramethyl-cyclobutyl]pyrimidine-5-carboxamide] | < 1 |
| CC(=O)N1CCc2c(c(-c3cccc4cc(-c5cnn(CC6CCN(c7ncc(C(=O)NC8C(C)(C)C(Oc9ccc(C#N)c(Cl)c9)C8(C)C)cn7)CC6)c5)ncc34)nn2C2CCOCC2)C1 (centres unmarked) [Compound 137, 2-[4-[[4-[8-(5-acetyl-1-tetrahydropyran-4-yl-6,7-dihydro-4H-pyrazolo[4,3-c]pyridin-3-yl)-3-isoquinolyl]pyrazol-1-yl]methyl]-1-piperidyl]-N-[3-(3-chloro-4-cyano-phenoxy)-2,2,4,4-tetramethyl-cyclobutyl]pyrimidine-5-carboxamide] | < 1 |
| COc1cc(OC2C(C)(C)C(NC(=O)c3ccc(N4CC5(CCC(N6CCC(n7nc(N8CCCc9cc(-c%10cncs%10)c(C(F)F)cc98)c8c7CCN(C(C)=O)C8)CC6)CC5)C4)cc3)C2(C)C)ccc1C#N (centres unmarked) [Compound 428, 4-[7-[4-[5-acetyl-3-[7-(difluoromethyl)-6-thiazol-5-yl-3,4-dihydro-2H-quinolin-1-yl]-6,7-dihydro-4H-pyrazolo[4,3-c]pyridin-1-yl]-1-piperidyl]-2-azaspiro[3.5]nonan-2-yl]-N-[3-(4-cyano-3-methoxy-phenoxy)-2,2,4,4-tetramethyl-cyclobutyl]benzamide] | < 1 |

Each compound was assayed on VCaP cells (assay: VCaP growth inhibition assay). Conditions: 30 pM R1881, 9 days, CTG.
Assay type: cell-based
Experimental: VCaP cells (ATCC Cat #CRL-2876) are plated at 1×10^4 cells per well of a white plastic 96-well cluster plate (Thermo Scientific Nunc Cat #165306) in 100 uL phenol red-free DMEM (Gibco Cat #21063-029) media with 5% CSS (Omega Scientific Cat #FB-04). Cluster plates are returned to the incubator (37*C/5% CO2) for 72 hours prior to treatment. Just prior to treatment, 100 μL of phenol red-free DMEM/5% CSS and […] R1881 (Sigma Cat #R0908-10 mg) was added to each well of the cluster plates (Final R1881 concentration=30 pM). Compounds (200×) were added to each well in a volume of 1 uL, with serial dilutions (1:5) from 20 uM to 2 pM (final concentrations in well are 100 nM to 10 fM). Cluster plates are returned to the incubator for 9 days.
After the 9-day treatment period, media was removed from the cluster plates by inversion and 100 uL room temperature CTG reagent (Promega Cat #G7573) is added to each well. The cluster plates are placed on a shaker and incubated at room temperature for 20 minutes. Following this shaking/incubation, cluster plates are read on a luminometer (BMG ClarioStar). IC50 values are obtained by graphing the RLU data vs. compound concentration with nonlinear regression 4-parameter logistic curves (GraphPad Prism).

| Structure (SMILES) | IC50 [nM] |
| --- | --- |
| COc1cc(OC2C(C)(C)C(NC(=O)c3ccc(N4CC(N5CCC6(CCC(n7nc(N8CCCc9cc(-c%10cnn(C)c%10)c(C(F)F)cc98)c8c7CCN(C(C)=O)C8)CC6)CC5)C4)cc3)C2(C)C)ccc1C#N (centres unmarked) [Compound 301, 4-[3-[9-[5-acetyl-3-[7-(difluoromethyl)-6-(1-methylpyrazol-4-yl)-3,4-dihydro-2H-quinolin-1-yl]-6,7-dihydro-4H-pyrazolo[4,3-c]pyridin-1-yl]-3-azaspiro[5.5]undecan-3-yl]azetidin-1-yl]-N-[3-(4-cyano-3-methoxy-phenoxy)-2,2,4,4-tetramethyl-cyclobutyl]benzamide] | ≤ 0.1 |
| COc1cc(OC2C(C)(C)C(NC(=O)c3ccc(N4CCC5(CC4)CCN(c4ccc(-c6cc7cccc(-c8nn(C9CCOCC9)c9c8CN(C(C)=O)CC9)c7cn6)cn4)CC5)cc3)C2(C)C)ccc1C#N (centres unmarked) [Compound 266, 4-[3-[5-[8-(5-acetyl-1-tetrahydropyran-4-yl-6,7-dihydro-4H-pyrazolo[4,3-c]pyridin-3-yl)-3-isoquinolyl]-2-pyridyl]-3,9-diazaspiro[5.5]undecan-9-yl]-N-[3-(4-cyano-3-methoxy-phenoxy)-2,2,4,4-tetramethyl-cyclobutyl]benzamide] | 0.1 to 1 |
| CC(=O)N1CCc2c(c(Nc3ccc(-c4cnn(C)c4)cc3F)nn2CCOC2CCN(c3ncc(C(=O)NC4C(C)(C)C(Oc5ccc(C#N)c(Cl)c5)C4(C)C)cn3)CC2)C1 (centres unmarked) [Compound 2, 2-[4-[2-[5-acetyl-3-[2-fluoro-4-(1-methylpyrazol-4-yl)anilino]-6,7-dihydro-4H-pyrazolo[4,3-c]pyridin-1-yl]ethoxy]-1-piperidyl]-N-[3-(3-chloro-4-cyano-phenoxy)-2,2,4,4-tetramethyl-cyclobutyl]pyrimidine-5-carboxamide] | 1 to 100 |
| CC(=O)N1CCc2c(c(N3CCCc4cc(-c5cnn(C)c5)c(C(F)F)cc43)nn2CCN2CCN(c3ncc(C(=O)NC4C(C)(C)C(Oc5ccc(C#N)c(Cl)c5)C4(C)C)cn3)CC2)C1 (centres unmarked) [Compound 52, 2-[4-[2-[5-acetyl-3-[7-(difluoromethyl)-6-(1-methylpyrazol-4-yl)-3,4-dihydro-2H-quinolin-1-yl]-6,7-dihydro-4H-pyrazolo[4,3-c]pyridin-1-yl]ethyl]piperazin-1-yl]-N-[3-(3-chloro-4-cyano-phenoxy)-2,2,4,4-tetramethyl-cyclobutyl]pyrimidine-5-carboxamide] | 0.1 to 1 |
| CC(=O)N1CCc2c(c(Nc3ccc(-c4cnn(C)c4)cc3F)nn2C2CN(C(=O)CN3CCN(c4ncc(C(=O)NC5C(C)(C)C(Oc6ccc(C#N)c(Cl)c6)C5(C)C)cn4)CC3)C2)C1 (centres unmarked) [Compound 165, 2-[4-[2-[3-[5-acetyl-3-[2-fluoro-4-(1-methylpyrazol-4-yl)anilino]-6,7-dihydro-4H-pyrazolo[4,3-c]pyridin-1-yl]azetidin-1-yl]-2-oxo-ethyl]piperazin-1-yl]-N-[3-(3-chloro-4-cyano-phenoxy)-2,2,4,4-tetramethyl-cyclobutyl]pyrimidine-5-carboxamide] | ≤ 0.1 |
| CC(=O)N1CCc2c(c(N3CCCc4cc(-c5cnn(C)c5)c(C(F)F)cc43)nn2C2CCC3(CC2)CCN(c2ccc4c(n2)CN(C2C(C)(C)C(Oc5ccc(C#N)c(Cl)c5)C2(C)C)C4=O)CC3)C1 (centres unmarked) [Compound 298, 4-[3-[2-[9-[5-acetyl-3-[7-(difluoromethyl)-6-(1-methylpyrazol-4-yl)-3,4-dihydro-2H-quinolin-1-yl]-6,7-dihydro-4H-pyrazolo[4,3-c]pyridin-1-yl]-3-azaspiro [5.5]undecan-3-yl]-5-oxo-7H-pyrrolo[3,4-b]pyridin-6-yl]-2,2,4,4-tetramethyl-cyclobutoxy]-2-chloro-benzonitrile] | > 100 |
| COc1cc(OC2C(C)(C)C(NC(=O)c3ccc(N4CCC5(CCC(n6cc(-c7cc8cccc(-c9nn(C%10CCOCC%10)c%10c9CN(C(C)=O)CC%10)c8cn7)cn6)CC5)CC4)cc3)C2(C)C)ccc1C#N (centres unmarked) [Compound 269, 4-[9-[4-[8-(5-acetyl-1-tetrahydropyran-4-yl-6,7-dihydro-4H-pyrazolo[4,3-c]pyridin-3-yl)-3-isoquinolyl]pyrazol-1-yl]-3-azaspiro[5.5]undecan-3-yl]-N-[3-(4-cyano-3-methoxy-phenoxy)-2,2,4,4-tetramethyl-cyclobutyl]benzamide] | 0.1 to 1 |
| CC(=O)N1CCc2c(c(N3CCCc4cc(-c5cnn(C)c5)c(C(F)F)cc43)nn2C2CCN(C3CCN(c4ccc5c(n4)CN(C4C(C)(C)C(Oc6ccc(C#N)c(Cl)c6)C4(C)C)C5=O)CC3)CC2)C1 (centres unmarked) [Compound 297, 4-[3-[2-[4-[4-[5-acetyl-3-[7-(difluoromethyl)-6-(1-methylpyrazol-4-yl)-3,4-dihydro-2H-quinolin-1-yl]-6,7-dihydro-4H-pyrazolo[4,3-c]pyridin-1-yl]-1-piperidyl]-1-piperidyl]-5-oxo-7H-pyrrolo[3,4-b]pyridin-6-yl]-2,2,4,4-tetramethyl-cyclobutoxy]-2-chloro-benzonitrile] | 1 to 100 |
| CC(=O)N1CCc2c(c(N3CCCc4cc(-c5cnn(C)c5)c(C(F)F)cc43)nn2C2CCN(CCOCc3ncc(C(=O)NC4C(C)(C)C(Oc5ccc(C#N)c(Cl)c5)C4(C)C)cn3)CC2)C1 (centres unmarked) [Compound 88, 2-[2-[4-[5-acetyl-3-[7-(difluoromethyl)-6-(1-methylpyrazol-4-yl)-3,4-dihydro-2H-quinolin-1-yl]-6,7-dihydro-4H-pyrazolo[4,3-c]pyridin-1-yl]-1-piperidyl]ethoxymethyl]-N-[3-(3-chloro-4-cyano-phenoxy)-2,2,4,4-tetramethyl-cyclobutyl]pyrimidine-5-carboxamide] | 0.1 to 1 |
| COc1cc(OC2C(C)(C)C(NC(=O)c3ccc(N4CCC(N5CCC6(CCC(n7nc(N8CCCc9cc(-c%10cnn(C)c%10)c(C(F)F)cc98)c8c7CCN(C(C)=O)C8)CC6)CC5)CC4)cc3)C2(C)C)ccc1C#N (centres unmarked) [Compound 300, 4-[4-[9-[5-acetyl-3-[7-(difluoromethyl)-6-(1-methylpyrazol-4-yl)-3,4-dihydro-2H-quinolin-1-yl]-6,7-dihydro-4H-pyrazolo[4,3-c]pyridin-1-yl]-3-azaspiro[5.5]undecan-3-yl]-1-piperidyl]-N-[3-(4-cyano-3-methoxy-phenoxy)-2,2,4,4-tetramethyl-cyclobutyl]benzamide] | ≤ 0.1 |
| CC(=O)N1CCc2c(c(Nc3ccc(-c4cnn(C)c4)cc3F)nn2C2CCN(CCC3CCN(c4ncc(C(=O)NC5C(C)(C)C(Oc6ccc(C#N)c(Cl)c6)C5(C)C)cn4)CC3)CC2)C1 (centres unmarked) [Compound 168, 2-[4-[2-[4-[5-acetyl-3-[2-fluoro-4-(1-methylpyrazol-4-yl)anilino]-6,7-dihydro-4H-pyrazolo[4,3-c]pyridin-1-yl]-1-piperidyl]ethyl]-1-piperidyl]-N-[3-(3-chloro-4-cyano-phenoxy)-2,2,4,4-tetramethyl-cyclobutyl]pyrimidine-5-carboxamide] | 0.1 to 1 |
